From US10584159B2, “Renilla based biosensors for monitoring biomolecule localization and trafficking in cells” (The Royal Institution for the Advancement of …, priority 2014, dated 2020)
No end group written: not given here.

Target: T1, AT1R (Homo sapiens, UniProt P30556)
T1 construct: expressed in transfected cells; host or cells: HEK293SL
T1 sequence (P30556 1-359): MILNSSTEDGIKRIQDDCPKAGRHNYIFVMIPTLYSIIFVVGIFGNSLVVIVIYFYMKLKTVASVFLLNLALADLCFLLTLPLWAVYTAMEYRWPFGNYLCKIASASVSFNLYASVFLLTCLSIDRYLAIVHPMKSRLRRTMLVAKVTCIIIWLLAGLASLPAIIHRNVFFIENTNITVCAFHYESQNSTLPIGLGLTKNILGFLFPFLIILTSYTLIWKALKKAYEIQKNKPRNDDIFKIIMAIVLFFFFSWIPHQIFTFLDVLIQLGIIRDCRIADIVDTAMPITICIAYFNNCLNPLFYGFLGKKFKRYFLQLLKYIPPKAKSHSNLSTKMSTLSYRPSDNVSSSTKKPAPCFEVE
Experiment: β-arrestin2 targeting to endosomes BRET (AT1R/βarr2-RlucII/rGFP-endofinFYVE)
Assay type: cell-based
Conditions: 40 min
Experimental: BRET measurements for FIGS. 1B to 9D, 25D to 25F. The following day of transfection, cells were detached and replated onto poly-ornithine coated white 96-well plate at a density of 25,000 cells per well. The next day, cells were washed once with pre-warmed Tyrode's buffer (140 mM NaCl, 2.7 mM KCl, 1 mM CaCl2, 12 mM NaHCO3, 5.6 mM D-glucose, 0.5 mM MgCl2, 0.37 mM NaH2PO4, 25 mM HEPES, pH 7.4), and then stimulated with either various concentrations of ligands in Tyrode's buffer for the indicated time, or single concentration of ligands for various times at 37° C. For recycling experiment, after stimulating the cells with the ligands for 30 min at 37° C., they were washed either three times with ice-cold Tyrode's buffer or once with Tyrode's buffer/three times with acid (50 mM sodium citrate, pH 4.0)/two times with Tyrode's buffer. All the washing steps were performed on ice. Cells were then further incubated with Tyrode's buffer at 37° C. in a water bath for 45 min. The cell-permeable substrate, coelenterazine 400a was added at a final concentration of 5 μM in Tyrode's buffer 3-4 min before BRET measurements. Measurements were performed by using Synergy2 (BioTek®) microplate reader with a filter set of 410±80 nm and 515±30 nm for detecting the RlucII Renilla luciferase (donor) and GFP10 or rGFP (acceptor) light emissions, respectively. The BRET signal was determined by calculating the ratio of the light intensity emitted by the GFP10 or rGFP over the light intensity emitted by the RlucII. All the BRET measurements were performed in triplicate at 37° C.

## DRVYVHPG [DVG, [Asp^1,Val^5, Gly^8]-AngII]
  β-arrestin2 trafficking to endosomes with receptors, compared to AngII: weakly promoted
